Our source for the Activity values is ChEMBL document CHEMBL2074400, “Transporter-mediated renal handling of nafamostat mesilate” (J Pharm Sci, 2004).

Each structure is given as a SMILES string.

The target in this data set is ATP-dependent translocase ABCB1 (Homo sapiens, UniProt P08183). The data set is described as follows: TP_TRANSPORTER: transepithelial transport in LLC-GA5-COL150 cells. Type of data set: functional, cell-based. The following applies: pig.
Chain of ATP-dependent translocase ABCB1 (P08183 whole entry): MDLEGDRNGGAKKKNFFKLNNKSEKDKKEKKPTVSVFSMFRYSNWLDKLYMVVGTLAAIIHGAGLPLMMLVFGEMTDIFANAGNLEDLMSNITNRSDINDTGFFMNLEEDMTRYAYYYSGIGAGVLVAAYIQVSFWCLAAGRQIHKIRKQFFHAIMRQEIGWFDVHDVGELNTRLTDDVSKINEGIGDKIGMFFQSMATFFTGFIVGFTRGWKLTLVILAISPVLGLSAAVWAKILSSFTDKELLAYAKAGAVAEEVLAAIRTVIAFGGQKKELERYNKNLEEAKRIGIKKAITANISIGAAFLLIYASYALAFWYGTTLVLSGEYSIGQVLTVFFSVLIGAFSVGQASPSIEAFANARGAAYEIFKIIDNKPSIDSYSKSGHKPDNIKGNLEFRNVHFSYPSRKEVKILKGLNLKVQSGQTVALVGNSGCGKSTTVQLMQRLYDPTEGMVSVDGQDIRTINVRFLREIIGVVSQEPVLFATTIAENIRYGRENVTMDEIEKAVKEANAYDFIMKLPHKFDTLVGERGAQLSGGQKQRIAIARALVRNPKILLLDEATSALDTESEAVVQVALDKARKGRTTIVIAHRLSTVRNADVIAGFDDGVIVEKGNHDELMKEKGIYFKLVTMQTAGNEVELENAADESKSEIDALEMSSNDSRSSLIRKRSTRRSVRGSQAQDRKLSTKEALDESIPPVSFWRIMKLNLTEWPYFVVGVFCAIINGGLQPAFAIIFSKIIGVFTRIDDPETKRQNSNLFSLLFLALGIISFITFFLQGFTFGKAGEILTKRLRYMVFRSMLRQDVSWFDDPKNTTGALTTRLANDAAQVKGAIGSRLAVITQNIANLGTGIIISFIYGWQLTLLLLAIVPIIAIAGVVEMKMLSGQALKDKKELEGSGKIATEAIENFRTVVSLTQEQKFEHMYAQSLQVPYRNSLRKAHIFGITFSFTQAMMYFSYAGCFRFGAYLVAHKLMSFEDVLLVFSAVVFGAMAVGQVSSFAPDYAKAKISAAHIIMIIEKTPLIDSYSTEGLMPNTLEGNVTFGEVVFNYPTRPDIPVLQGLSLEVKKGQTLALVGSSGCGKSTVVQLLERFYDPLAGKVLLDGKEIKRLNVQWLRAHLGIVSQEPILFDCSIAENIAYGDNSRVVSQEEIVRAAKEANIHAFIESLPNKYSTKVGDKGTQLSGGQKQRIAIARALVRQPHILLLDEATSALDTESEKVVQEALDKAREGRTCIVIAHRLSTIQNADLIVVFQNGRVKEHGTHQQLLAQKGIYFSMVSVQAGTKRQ

For the molecule `CS(=O)(=O)O.N=C(N)Nc1ccc(C(=O)Oc2ccc3cc(C(=N)N)ccc3c2)cc1`, the Activity entry is “is not a substrate [-]”.
